“Also recorded” adds a separate entry of the source. Square brackets hold non-standard residues; d marks the D form. Ends that are not written are not given here. Peptide text beside a SMILES is read from it. pGlu = O=C1CC[C@@H](C(=O)O)N1
What was measured:
B. floridae GnRHR1 = biological target: T1, B. floridae GnRHR1 (Branchiostoma floridae, UniProt C0IP19); test: Luminescence response in HEK293-G5a cells expressing B. floridae GnRHR1 (with Gαqi9); format: cell-based
T1 sequence (C0IP19 1-403): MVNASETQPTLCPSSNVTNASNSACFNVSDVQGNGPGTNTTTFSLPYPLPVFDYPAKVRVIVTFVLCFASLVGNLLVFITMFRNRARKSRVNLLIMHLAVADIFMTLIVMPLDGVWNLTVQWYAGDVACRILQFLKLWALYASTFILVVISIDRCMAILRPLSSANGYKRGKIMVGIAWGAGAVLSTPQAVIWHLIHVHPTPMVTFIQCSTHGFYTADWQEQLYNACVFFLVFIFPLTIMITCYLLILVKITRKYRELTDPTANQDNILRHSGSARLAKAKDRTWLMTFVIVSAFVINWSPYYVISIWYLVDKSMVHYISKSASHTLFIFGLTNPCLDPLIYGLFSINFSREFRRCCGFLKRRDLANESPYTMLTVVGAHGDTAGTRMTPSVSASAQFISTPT
From the text: (§1) For this purpose, we expressed individual receptors in a heterologous expression system comprising human embryo kidney 293 cells (HEK293-G5a) cells and monitored luminescence responses to three synthetic peptides.
(§2) Five millimoles of stock solutions of all peptides were first prepared in 50% Dimethyl sulfoxide. […] These receptors were codon-optimized for mammalian cell lines, synthesized and cloned into pcDNA3.4(+) vector by Genscript synthesis services. A 5′ partial Kozak translation initiation sequence (CCACC) was also included to improve expression. The codon-optimized receptor sequences are provided in supplementary file 9, Supplementary Material online. HEK293-G5a (Angio-proteomie CAT no. cAP-0200GFP-AEQ-Cyto) cells were cultured in 96 well-plates containing 100 μl of Dublecco’s Modified Eagle medium (DMEM; Thermo; Cat. No. 10566016) supplemented with 10% foetal bovine serum (Thermo; Cat. No. 10082147). The plates were kept in an incubator at 37°C and 5% CO2. Upon reaching 85% confluency, cells were co-transfected with plasmids encoding individual receptors or the empty pcDNA3.1 + vector (control), and the Gαqi9 promiscuous protein [Addgene; Cat. No. 125711 {[Masharina et al. 2012]}], as described previously ([Yañez-Guerra et al. 2022]). Transfections were carried out with 60 ng of each plasmid and 0.45 μl of the transfection reagent Transfectamine 5,000 (AAT-bioquest; Cat. No. 60022) per well. Two days post-transfection, the media was replaced with fresh DMEM medium supplemented with […] coelenterazine-H (Thermo Fisher Scientific; Cat. No. C6780). The cells were incubated for 2 h and then used for the luminescence assay. Various concentrations of the three synthetic peptides ranging from 10^−4 M to 10^−12 M were prepared in DMEM media and tested on the cells. Luminescence levels were recorded and integrated over a 65-s measurement period in a FlexStation 3 Multi-Mode Microplate Reader (Molecular Devices). A minimum of two independent transfections (biological replicates) for each receptor and two–three technical replicates for each peptide concentration were performed. […]

B. floridae GnRHR2 = biological target: T2, B. floridae GnRHR2 (Branchiostoma floridae, UniProt C0IP20); test: Luminescence response in HEK293-G5a cells expressing B. floridae GnRHR2 (with Gαqi9); format: cell-based
T2 sequence (C0IP20 1-397): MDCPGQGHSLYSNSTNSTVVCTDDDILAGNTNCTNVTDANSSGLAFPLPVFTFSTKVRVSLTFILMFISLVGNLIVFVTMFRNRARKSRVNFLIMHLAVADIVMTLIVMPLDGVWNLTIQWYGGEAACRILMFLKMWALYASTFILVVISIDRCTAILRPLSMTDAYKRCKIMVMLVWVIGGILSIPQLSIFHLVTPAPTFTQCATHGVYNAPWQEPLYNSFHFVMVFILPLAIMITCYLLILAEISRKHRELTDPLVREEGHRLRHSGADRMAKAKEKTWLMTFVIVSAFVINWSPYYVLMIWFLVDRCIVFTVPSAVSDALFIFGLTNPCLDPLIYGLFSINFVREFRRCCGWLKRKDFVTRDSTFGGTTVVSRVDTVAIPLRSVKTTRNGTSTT
From the text: as §1, §2

B. floridae CRZR1 = biological target: T3, B. floridae CRZR1 (Branchiostoma floridae, UniProt C0IP22); test: Luminescence response in HEK293-G5a cells expressing B. floridae CRZR1 (with Gαqi9); format: cell-based
T3 sequence (C0IP22 1-831): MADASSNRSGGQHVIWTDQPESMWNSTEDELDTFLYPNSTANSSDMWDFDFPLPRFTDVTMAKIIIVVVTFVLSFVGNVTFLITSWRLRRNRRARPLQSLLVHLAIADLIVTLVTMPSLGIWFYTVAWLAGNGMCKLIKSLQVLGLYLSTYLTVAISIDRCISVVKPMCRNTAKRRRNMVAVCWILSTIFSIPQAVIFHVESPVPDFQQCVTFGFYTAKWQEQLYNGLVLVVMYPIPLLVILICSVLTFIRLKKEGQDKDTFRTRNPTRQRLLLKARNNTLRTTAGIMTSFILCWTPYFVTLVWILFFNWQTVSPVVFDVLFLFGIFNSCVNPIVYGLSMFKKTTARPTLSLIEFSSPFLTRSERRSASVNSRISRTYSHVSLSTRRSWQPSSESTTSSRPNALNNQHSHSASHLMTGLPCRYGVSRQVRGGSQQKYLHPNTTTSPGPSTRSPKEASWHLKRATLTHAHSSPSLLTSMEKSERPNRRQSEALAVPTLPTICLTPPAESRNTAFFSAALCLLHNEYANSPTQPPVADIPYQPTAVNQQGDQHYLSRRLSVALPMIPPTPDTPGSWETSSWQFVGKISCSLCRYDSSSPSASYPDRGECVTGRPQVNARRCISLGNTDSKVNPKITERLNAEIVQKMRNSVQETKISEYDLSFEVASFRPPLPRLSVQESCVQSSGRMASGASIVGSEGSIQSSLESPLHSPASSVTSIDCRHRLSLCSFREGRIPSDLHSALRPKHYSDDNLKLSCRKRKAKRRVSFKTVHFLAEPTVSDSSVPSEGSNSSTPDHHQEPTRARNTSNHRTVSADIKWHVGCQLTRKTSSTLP
From the text: as §1, §2

B. floridae CRZR3 = biological target: T4, B. floridae CRZR3 (Branchiostoma floridae, UniProt A0A9J7HT38); test: Luminescence response in HEK293-G5a cells expressing B. floridae CRZR3 (with Gαqi9); format: cell-based; conditions: for EC50: fig. 2D, HEK293-G5a, Gαqi9, 10^−4 M to 10^−12 M in DMEM, luminescence integrated over 65 s, normalized to maximum response, four-parameter curve, minimum of two independent transfections, read-out: EC50 values for the dose–response curves, CRZR3
T4 sequence (A0A9J7HT38 1-394): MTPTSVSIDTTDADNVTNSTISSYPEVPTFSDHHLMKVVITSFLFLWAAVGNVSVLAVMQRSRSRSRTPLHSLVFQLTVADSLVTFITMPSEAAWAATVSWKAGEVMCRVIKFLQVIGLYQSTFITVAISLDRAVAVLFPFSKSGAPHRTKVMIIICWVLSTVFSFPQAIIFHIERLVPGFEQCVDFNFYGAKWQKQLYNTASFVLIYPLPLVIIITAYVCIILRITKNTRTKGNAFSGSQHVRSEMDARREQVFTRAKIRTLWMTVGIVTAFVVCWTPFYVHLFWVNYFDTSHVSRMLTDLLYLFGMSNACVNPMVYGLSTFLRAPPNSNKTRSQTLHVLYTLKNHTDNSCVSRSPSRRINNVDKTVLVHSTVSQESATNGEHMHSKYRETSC
From the text: as §1
Five millimoles of stock solutions of all peptides were first prepared in 50% Dimethyl sulfoxide. […] These receptors were codon-optimized for mammalian cell lines, synthesized and cloned into pcDNA3.4(+) vector by Genscript synthesis services. A 5′ partial Kozak translation initiation sequence (CCACC) was also included to improve expression. The codon-optimized receptor sequences are provided in supplementary file 9, Supplementary Material online. HEK293-G5a (Angio-proteomie CAT no. cAP-0200GFP-AEQ-Cyto) cells were cultured in 96 well-plates containing 100 μl of Dublecco’s Modified Eagle medium (DMEM; Thermo; Cat. No. 10566016) supplemented with 10% foetal bovine serum (Thermo; Cat. No. 10082147). The plates were kept in an incubator at 37°C and 5% CO2. Upon reaching 85% confluency, cells were co-transfected with plasmids encoding individual receptors or the empty pcDNA3.1 + vector (control), and the Gαqi9 promiscuous protein [Addgene; Cat. No. 125711 {[Masharina et al. 2012]}], as described previously ([Yañez-Guerra et al. 2022]). Transfections were carried out with 60 ng of each plasmid and 0.45 μl of the transfection reagent Transfectamine 5,000 (AAT-bioquest; Cat. No. 60022) per well. Two days post-transfection, the media was replaced with fresh DMEM medium supplemented with […] coelenterazine-H (Thermo Fisher Scientific; Cat. No. C6780). The cells were incubated for 2 h and then used for the luminescence assay. Various concentrations of the three synthetic peptides ranging from 10^−4 M to 10^−12 M were prepared in DMEM media and tested on the cells. Luminescence levels were recorded and integrated over a 65-s measurement period in a FlexStation 3 Multi-Mode Microplate Reader (Molecular Devices). A minimum of two independent transfections (biological replicates) for each receptor and two–three technical replicates for each peptide concentration were performed. The responses were normalized to the maximum response obtained following the addition of peptide in each experiment (100% activation) and to the response obtained with the vehicle media (0% activation). Normalized data from the independent transfections was used to plot the dose–response curves (fitted with a four-parameter curve) using the package drc in R ([Ritz et al. 2015]). The raw data for the emtpy-vector control and receptor characterization are provided in supplementary files 10 and 11, Supplementary Material online, respectively. The script used for the dose–response curve analysis is available on Github (https://github.com/Imnotabioinformatician/Branchiostoma_Dose_response_curves).

B. floridae CRZR2 = biological target: T5, B. floridae CRZR2 (Branchiostoma floridae, UniProt C4N9P5); test: Luminescence response in HEK293-G5a cells expressing B. floridae CRZR2 (with Gαqi9); format: cell-based
T5 sequence (C4N9P5 1-421): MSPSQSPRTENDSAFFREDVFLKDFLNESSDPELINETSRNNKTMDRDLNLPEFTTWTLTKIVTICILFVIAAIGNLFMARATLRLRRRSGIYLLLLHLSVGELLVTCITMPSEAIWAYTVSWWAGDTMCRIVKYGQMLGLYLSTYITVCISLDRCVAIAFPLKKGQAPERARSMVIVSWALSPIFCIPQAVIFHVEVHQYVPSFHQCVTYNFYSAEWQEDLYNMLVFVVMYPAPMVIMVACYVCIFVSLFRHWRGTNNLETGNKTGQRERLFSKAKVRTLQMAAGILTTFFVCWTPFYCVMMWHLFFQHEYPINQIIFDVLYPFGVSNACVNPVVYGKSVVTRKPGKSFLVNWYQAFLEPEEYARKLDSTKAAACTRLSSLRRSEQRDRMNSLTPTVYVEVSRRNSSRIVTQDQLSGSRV
From the text: as §1
Five millimoles of stock solutions of all peptides were first prepared in 50% Dimethyl sulfoxide. […] These receptors were codon-optimized for mammalian cell lines, synthesized and cloned into pcDNA3.4(+) vector by Genscript synthesis services. A 5′ partial Kozak translation initiation sequence (CCACC) was also included to improve expression. The codon-optimized receptor sequences are provided in supplementary file 9, Supplementary Material online. HEK293-G5a (Angio-proteomie CAT no. cAP-0200GFP-AEQ-Cyto) cells were cultured in 96 well-plates containing 100 μl of Dublecco’s Modified Eagle medium (DMEM; Thermo; Cat. No. 10566016) supplemented with 10% foetal bovine serum (Thermo; Cat. No. 10082147). The plates were kept in an incubator at 37°C and 5% CO2. […] The cells were incubated for 2 h and then used for the luminescence assay. […] Luminescence levels were recorded and integrated over a 65-s measurement period in a FlexStation 3 Multi-Mode Microplate Reader (Molecular Devices). […]

[1] = biological target: one of the two CRZ-like receptors; set-up: method as in Roch, Tello, et al. 2014; conditions: ref Roch, Tello, et al. 2014; cited from earlier work

Compound | EC50 for the response, GnRHR1 (in words) (B. floridae GnRHR1; HEK293-G5a cells, luminescence) | EC50 (B. floridae GnRHR1; fig. 2D, HEK293-G5a, Gαqi9, 10^−4 M to 10^−12 M in DMEM, luminescence integrated over 65 s, normalized to maximum response, four-parameter curve, minimum of two independent transfections, read-out: EC50 values for the dose–response curves, GnRHR1) [nM] | EC50 for the response, GnRHR2 (in words) (B. floridae GnRHR2; HEK293-G5a cells, luminescence) | EC50 (B. floridae GnRHR2; fig. 2D, HEK293-G5a, Gαqi9, 10^−4 M to 10^−12 M in DMEM, luminescence integrated over 65 s, normalized to maximum response, four-parameter curve, minimum of two independent transfections, read-out: EC50 values for the dose–response curves, GnRHR2) [nM] | EC50 for the response, CRZR1 (in words) (B. floridae CRZR1) | EC50 (B. floridae CRZR3) [nM] | activation of GnRHR1 (in words) (B. floridae GnRHR1; HEK293-G5a cells, luminescence) | activation of GnRHR2 (in words) (B. floridae GnRHR2; HEK293-G5a cells, luminescence) | activation of CRZR1 (in words) (B. floridae CRZR1) | EC50 for the response, CRZR2 (in words) (B. floridae CRZR2) | activation of CRZR2 (in words) (B. floridae CRZR2) | EC50 for the response, CRZR3 (in words) (B. floridae CRZR3; HEK293-G5a cells, luminescence) | activation of CRZR3 (in words) (B. floridae CRZR3; HEK293-G5a cells, luminescence) | activation of one of the two CRZ-like receptors (in words) [1]
YSYSYGFAP-NH2 | low nanomolar range | 3.2 | low nanomolar range | 2.2 | mid-to-low nanomolar physiological range | 3800 | – | – | – | – | – | – | – | –
CC[C@H](C)[C@H](NC(=O)[C@@H]1CCC(=O)N1)C(=O)N[C@@H](CC(C)C)C(=O)N[C@@H](CS)C(=O)N[C@@H](C)C(=O)N[C@@H](CCCNC(=N)N)C(=O)N[C@@H](C)C(=O)N[C@@H](Cc1ccccc1)C(=O)N[C@H](C(=O)N[C@@H](Cc1ccc(O)cc1)C(=O)N[C@H](C(=O)N[C@@H](Cc1c[nH]cn1)C(=O)N[C@H](C(=O)N[C@@H](Cc1c[nH]c2ccccc12)C(N)=O)[C@@H](C)O)[C@@H](C)O)[C@@H](C)O [CRZ-ext] ([pGlu]ILCARAFTYTHTW-NH2) | – | – | – | – | equally high | 950 | Neither of these two receptors were activated | Neither of these two receptors were activated | all activated by CRZ, GnRH, and CRZ-ext; also recorded: also activated by CRZ-ext | high nanomolar range | all activated by CRZ, GnRH, and CRZ-ext | equally high | all activated by CRZ, GnRH, and CRZ-ext; also recorded: also activated by CRZ-ext | high nanomolar range
FTYTHTW-NH2 [CRZ, FTYTHTW-NH2] | – | – | – | – | – | 6.9 | – | – | – | – | – | – | – | –
